Where two headings read alike, the source gives them in different places.
Legend:
Format in all cases: in vivo, human
[1] = tested on: subjects suffering from the Insomnia Disorder adult insomnia; assay: Polysomnography crossover study of sleep parameters (SE, TST, WASO, LPS, Stage N2); conditions: for Latency to Persistent Sleep (LPS) Least Squares Means (STDE) / Sleep Efficiency (SE) Least Squares Means (STDE) / Time Spent in Sleep Stage N2 Least Squares Means (STDE) / Total Sleep Time (TST) Least Squares Means (STDE) / Wake after Sleep Onset (WASO) Least Squares Means (STDE): average of Night 1 and Night 2, full analysis population; for WASO, decrease in the difference of LSMs: stated as decrease
Protocol: The study randomized up to about 30 subjects to achieve at least about 24 completers (i.e., subjects who completed all 5 Dosing Periods). The subjects included otherwise healthy males and females aged 18 to 64 years, inclusive, with a history of adult insomnia (insomnia disorder as defined by DSM-5 criteria) and who otherwise had no significant medical or psychiatric history.
Compound (1C) was administered orally in an immediate release tablet comprising the pharmaceutically acceptable excipients croscarmellose sodium (FMC Health and Nutrition, Philadelphia, Pa.), hydroxypropylcellulose (Ashland Inc., Covington, Ky.), microcrystalline cellulose (Sigma-Aldrich, St. Louis, Mo.), and mannitol (SPI Pharma, Wilmington, Del.). […] Placebo tablets matching the Compound (1C) tablets were orally administered in the same way. The placebo tablets comprised the four above-described pharmaceutically acceptable excipients but with no Compound (1C).
During a baseline visit (Days −7 to −6), successful subjects arrived at a clinical unit in the afternoon or evening of Day −7. At that time, they began a stay of two consecutive nights during which each subject underwent continuous PSG recording for eight hours on the first night (Night 1) to assess eligibility criteria and to screen out subjects with sleep apnea or periodic limb movements with arousal. Still-successful subjects underwent another eight hours of continuous PSG recording on the second night (Night 2), which determined if a subject met the sleep-eligibility criteria based on the average of data obtained on Nights 1 and 2 of the baseline visit. During the baseline visit, subjects also practiced and took a post-sleep test used in this study, i.e., the digit symbol substitution test (“DSST”), and familiarized themselves with the Karolinska Sleepiness Scale (“KSS”) evaluation form. To assess a subject's perception of the “quality” and “quantity” of sleep, a post-sleep questionnaire was used to ask questions such as “how many minutes did it take you to fall asleep last night after you got into bed and the lights were turned off?”, “how many times did you awaken during the night?”, and “on a scale from 1 to 10, with 1 being poor and 10 being excellent, how would you rate the quality of your sleep last night?”. Subjects who met all eligibility criteria after the baseline visit returned approximately seven days later to enter the treatment period (Dosing Periods 1-5).
A summary of the PSG recording procedure that was used is as follows. Standard placements for EEG electrodes were derived according to the international 10-20 system (see, e.g., Jasper, “The ten-twenty electrode system of the international federation,” Electroencephalography Clin. Neurophys. 10:371-375 (1958)) with the exception of the change of the A1-A2 labels to M1-M2, pursuant to the AASM Manual for Scoring of Sleep (Berry et al., “The AASM Manual for the Scoring of Sleep and Associated Events: Rules, Terminology and Technical Specifications,” Version 2.0.3, American Academy of Sleep Medicine, Darien, Ill., (2014)). This system requires that electrodes be positioned in measured relationships to landmark anatomical points. Standard placements for EOG, submental EMG electrodes, anterior tibialis EMG electrodes, and airflow sensors were consistent with the AASM Manual for Scoring of Sleep.
(2) The 27-day treatment period included five dosing periods (Dosing Periods 1-5) that were at least 5 days apart. Once continued eligibility was confirmed, subjects were randomized as to treatment upon check-in on Day 1. […] The time subjects spent in bed in an undisturbed environment was fixed at 8 hours (i.e., 960 PSG epochs of 30 seconds duration per epoch).
Following the evening-time dosing with study drug, subjects underwent eight hours of continuous PSG recording. […]

[2] = tested on: subjects suffering from the Insomnia Disorder adult insomnia; conditions: for mean change in DSST score net of placebo, compared with suvorexant: about 9 hours after administration, vs 10, 20 and 40 mg suvorexant, FIG. 11
Protocol: Literature data for indications of sleep efficacy and attendant residual effects after suvorexant administration, orally administered as BELSOMRA tablets at a single dose of 10 mg, 20 mg, and 40 mg, was available. Literature data for indications of sleep efficacy after zolpidem administration, orally administered as AMBIEN CR tablets, i.e., an extended-release tablet comprising the tartrate salt, in a single dose of 12.5 mg was also available. […] Additionally, the data shown in FIG. 8 through FIG. 11 are for the treatment effect net of placebo.

[3] = clinical
Protocol: The highest doses tested in healthy subjects were for a 30-mg single dose and a 10-mg multiple dose (once daily nighttime dose for 14 days). The highest dose tested in subjects with insomnia was 10 mg.

[4] = all treatment groups (0.5, 1.0, 3.0, 6.0 mg)

## O=C(O)c1nc2ccccc2n([C@H]2C[C@H]3CCC[C@@H](C2)N3C2CC3CCCC(C3)C2)c1=O (stereo partly shown) [Compound (1C)]
[1]; 0.5 mg oral
  Latency to Persistent Sleep (LPS) Least Squares Means (STDE): −25.9 (2.78) min
  Sleep Efficiency (SE) Least Squares Means (STDE): 12.1 (1.02) %
  Time Spent in Sleep Stage N2 Least Squares Means (STDE): 57.1 (5.53) min
  Total Sleep Time (TST) Least Squares Means (STDE): 57.9 (4.88) min
  Wake after Sleep Onset (WASO) Least Squares Means (STDE): −37.1 (4.54) min
[1]; 0.5 mg vs. Placebo
  Latency to Persistent Sleep (LPS) Difference of Least Squares Means vs. Placebo: 2.6 min
  Sleep Efficiency (SE) Difference of Least Squares Means vs. Placebo: 4.1%
  Time Spent in Sleep Stage N2 Difference of Least Squares Means vs. Placebo: 33.6 min
  Total Sleep Time (TST) Difference of Least Squares Means vs. Placebo: 19.8 min
  Wake after Sleep Onset (WASO) Difference of Least Squares Means vs. Placebo: -24.3 min
[1]; 0.5 mg vs. placebo
  WASO, decrease in the difference of LSMs: 24.3 min
[1]; 1.0 mg oral
  Latency to Persistent Sleep (LPS) Least Squares Means (STDE): −29.9 (2.78) min
  Sleep Efficiency (SE) Least Squares Means (STDE): 14.7 (1.02) %
  Time Spent in Sleep Stage N2 Least Squares Means (STDE): 69.2 (5.53) min
  Total Sleep Time (TST) Least Squares Means (STDE): 70.3 (4.88) min
  Wake after Sleep Onset (WASO) Least Squares Means (STDE): −44.5 (4.54) min
[1]; 1.0 mg vs. Placebo
  Latency to Persistent Sleep (LPS) Difference of Least Squares Means vs. Placebo: -1.4 min
  Sleep Efficiency (SE) Difference of Least Squares Means vs. Placebo: 6.7%
  Time Spent in Sleep Stage N2 Difference of Least Squares Means vs. Placebo: 45.7 min
  Total Sleep Time (TST) Difference of Least Squares Means vs. Placebo: 32.3 min
  Wake after Sleep Onset (WASO) Difference of Least Squares Means vs. Placebo: -31.8 min
[1]; 1.0 mg vs. placebo
  WASO, decrease in the difference of LSMs: 31.8 min
[1]; 3.0 mg oral
  Latency to Persistent Sleep (LPS) Least Squares Means (STDE): −29.0 (2.82) min
  Sleep Efficiency (SE) Least Squares Means (STDE): 17.6 (1.03) %
  Time Spent in Sleep Stage N2 Least Squares Means (STDE): 132.1 (5.6) min
  Total Sleep Time (TST) Least Squares Means (STDE): 84.5 (4.96) min
  Wake after Sleep Onset (WASO) Least Squares Means (STDE): −59.1 (4.60) min
[1]; 3.0 mg vs. Placebo
  Latency to Persistent Sleep (LPS) Difference of Least Squares Means vs. Placebo: -0.5 min
  Sleep Efficiency (SE) Difference of Least Squares Means vs. Placebo: 9.7%
  Time Spent in Sleep Stage N2 Difference of Least Squares Means vs. Placebo: 108.5 min
  Total Sleep Time (TST) Difference of Least Squares Means vs. Placebo: 46.4 min
  Wake after Sleep Onset (WASO) Difference of Least Squares Means vs. Placebo: -46.4 min
[1]; 3.0 mg vs. placebo
  WASO, decrease in the difference of LSMs: 46.4 min
[1]; 6.0 mg oral
  Latency to Persistent Sleep (LPS) Least Squares Means (STDE): −31.7 (2.78) min
  Sleep Efficiency (SE) Least Squares Means (STDE): 19.0 (1.02) %
  Time Spent in Sleep Stage N2 Least Squares Means (STDE): 146.3 (5.5) min
  Total Sleep Time (TST) Least Squares Means (STDE): 91.0 (4.88) min
  Wake after Sleep Onset (WASO) Least Squares Means (STDE): −63.5 (4.54) min
[1]; 6.0 mg vs. Placebo
  Latency to Persistent Sleep (LPS) Difference of Least Squares Means vs. Placebo: -3.2 min
  Sleep Efficiency (SE) Difference of Least Squares Means vs. Placebo: 11.0%
  Time Spent in Sleep Stage N2 Difference of Least Squares Means vs. Placebo: 122.8 min
  Total Sleep Time (TST) Difference of Least Squares Means vs. Placebo: 52.9 min
  Wake after Sleep Onset (WASO) Difference of Least Squares Means vs. Placebo: -50.8 min
[1]; 6.0 mg vs. placebo
  WASO, decrease in the difference of LSMs: 50.8 min
[1]; [4]
  Sleep Efficiency vs placebo: significantly increased
  Total Sleep Time vs placebo: significantly increased
  Wake after Sleep Onset vs placebo: significantly decreased
  amount of time spent in sleep Stage N2 vs placebo: significantly increased
[1]; any of the treatment groups (0.5, 1.0, 3.0, 6.0 mg)
  Latency to Persistent Sleep vs placebo: not significantly different
[2]; 0.5 mg Compound (1C) vs 10 mg or 20 mg suvorexant, Night 1, FIG. 9
  mean improvement in WASO net of placebo, compared with suvorexant: nearly comparable to
[2]; 0.5 mg Compound (1C) vs 12.5 mg zolpidem, Night 1, FIG. 9
  mean improvement in WASO net of placebo, compared with zolpidem: far greater than
[2]; 0.5 mg
  mean change in DSST score net of placebo, compared with suvorexant: small and comparable
[2]; 1.0 mg Compound (1C) vs 10 mg suvorexant, Night 1, FIG. 8
  mean improvement in SE net of placebo, compared with suvorexant: greater than
[2]; 1.0 mg Compound (1C) vs 12.5 mg zolpidem, Night 1, FIG. 8
  mean improvement in SE net of placebo, compared with zolpidem: greater than
[2]; 1.0 mg Compound (1C) vs 40 mg suvorexant, Night 1, FIG. 9
  mean improvement in WASO net of placebo, compared with suvorexant: nearly comparable to
[2]; 1.0 mg
  mean change in DSST score net of placebo, compared with suvorexant: small and comparable
[2]; 6.0 mg Compound (1C) vs 10 mg suvorexant, Night 1, FIG. 10
  mean improvement in LPS net of placebo, compared with suvorexant: comparable to
[2]; 6.0 mg Compound (1C) vs 40 mg suvorexant, Night 1, FIG. 8
  mean improvement in SE net of placebo, compared with suvorexant: comparable to
[2]; up to 6.0 mg Compound (1C) vs 20 mg suvorexant or 12.5 mg zolpidem, Night 1, FIG. 10
  mean improvement in LPS net of placebo, compared with suvorexant or zolpidem: not as great as
[3]; human
  major elimination pathway: Renal elimination
[3]; human plasma
  major metabolite in human plasma: No major metabolite has been identified
[3]; human, in vivo
  renal clearance (adjusted by plasma protein binding) compared with glomerular filtration rate: higher than the human glomerular filtration rate
[3]; human, in vivo, po
  Tmax: ~1.5 h
  half-life: 2 to 3 h
[3]; once a day dosing for 2 weeks
  dose proportionality of exposure: approximately dose-proportional exposure up to 10 mg
[3]; single oral administration
  dose proportionality of exposure: approximately dose-proportional exposure up to 10 mg
[3]; within 48 hours
  unchanged drug recovered in urine: 80-100%

From patent US11576913B2 (priority 2018, dated 2023)
